# Experimental data reported in paper PMC10647616, “Side-Chain Modified [^99mTc]Tc-DT1 Mimics: A Comparative Study in NTS1R-Positive Models” (International Journal of Molecular Sciences, 2023).
# Residues, ends and D or L forms follow the SMILES beside them. *: point of attachment. N4 = 6-(carboxy)-1,4,8,11-tetraazaundecane chelator, NCCNCC(CNCCN)C(=O)*; Butanoyl(4-(4-MePh)) = Cc1ccc(CCCC(=O)*)cc1; X1 = NCCNCC(CNCCN)C(=O)*
# Tests used:
# human NTS1R = molecular target: T1, human NTS1R (Homo sapiens, UniProt P30989); test: Competition binding against [125I]I-Tyr3-NT in WiDr cell membrane homogenates; conditions: WiDr cell membranes, 1 h at 22 °C, mean ± sd; read-out: IC50, [125I]I-Tyr3-NT displacement from NTS1R binding sites
# T1 construct: freshly prepared membrane homogenates of human colon adenocarcinoma WiDr cells; endogenous in cells; host or cells: WiDr human colon adenocarcinoma cells (membrane homogenates)
# T1 sequence (P30989 whole entry): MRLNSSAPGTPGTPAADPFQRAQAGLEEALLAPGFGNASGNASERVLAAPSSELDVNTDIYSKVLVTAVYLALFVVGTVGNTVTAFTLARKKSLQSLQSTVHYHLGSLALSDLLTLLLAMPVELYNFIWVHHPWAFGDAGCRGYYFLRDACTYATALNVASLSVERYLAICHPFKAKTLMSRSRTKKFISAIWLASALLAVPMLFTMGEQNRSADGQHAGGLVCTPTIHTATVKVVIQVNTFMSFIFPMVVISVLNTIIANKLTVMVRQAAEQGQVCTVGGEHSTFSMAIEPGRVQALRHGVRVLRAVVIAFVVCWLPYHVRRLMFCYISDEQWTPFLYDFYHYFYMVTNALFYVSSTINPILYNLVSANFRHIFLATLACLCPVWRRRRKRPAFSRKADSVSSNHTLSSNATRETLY
# Method: Aliquots of the cell membrane homogenates from WiDr cells (collected and stored at −80 °C in Tris/EDTA:10 mM of Tris, 0.1 mM of EDTA, pH 7.4) were thawed, combined and diluted in cold BB. In RIA tubes in triplicate, the test peptide (30 µL) of each concentration point, radioligand (70 µL) and membrane homogenate (200 µL) were consecutively added and thoroughly vortexed. Samples were placed for 1 h in the Incubator-Orbital Shaker (MPM Instr. Srl; Bernareggio, Italy) at 22 °C under constant steering. […] The samples were aspirated, and individual filters corresponding to each tube were collected in separate plastic tubes and measured for radioactivity on the γ-counter. Inhibition curves were plotted and the half maximal inhibitory concentration (IC50) values were calculated by applying a nonlinear one-site model (GraphPad Prism—6 Software, San Diego, CA, USA). The results for each compound are given as the average IC50 values ± sd of at least three independent repetitions of the experiment performed in triplicate.
# AsPC-1 cells = test: Time-dependent radioligand internalization in AsPC-1 cells; type: cell-based, human; conditions: 37 °C, at 1 h, non-specific (1 μM NT) subtracted
# Method: The time-dependent internalization of [^99mTc]Tc-DT10/11/12 was directly compared with [^99mTc]Tc-DT1 via incubation in AsPC-1 cells at 37 °C for 15 min, 30 min, 1 h and 2 h. The cells were seeded in 6-well plates (1 × 10^6 per well) and left in the incubator overnight. The next day, the cells were washed twice with ice-cold internalization medium (IM, RPMI supplemented with 1% FBS). The plates were placed on the bench and the following solutions were successively added per well: warm IM (1200 µL at 37 °C), radioligand (250 fmol in 150 µL of IM) and either IM (150 µL; 3 upper wells: total series) or NT (10^−5 M in IM, 3 bottom wells: non-specific series). The plates were placed in the incubator at 37 °C and, at the predetermined time points, were retrieved and placed on ice. […] The three fractions collected per well in separate RIA tubes (supernatant, MB and internalized) were measured for their radioactivity content on the γ-counter. The radioactivity of each fraction was then assessed as a percentage of the initial activity added per well. By subtracting the non-specific fractions from the respective total fractions, the specific MB and internalization fractions could be determined. […] The results were expressed as mean ± sd.
# albumin = albumin (Bos taurus, UniProt P02769); type: in vitro ADME, bovine
# albumin, sequence (P02769 25-607): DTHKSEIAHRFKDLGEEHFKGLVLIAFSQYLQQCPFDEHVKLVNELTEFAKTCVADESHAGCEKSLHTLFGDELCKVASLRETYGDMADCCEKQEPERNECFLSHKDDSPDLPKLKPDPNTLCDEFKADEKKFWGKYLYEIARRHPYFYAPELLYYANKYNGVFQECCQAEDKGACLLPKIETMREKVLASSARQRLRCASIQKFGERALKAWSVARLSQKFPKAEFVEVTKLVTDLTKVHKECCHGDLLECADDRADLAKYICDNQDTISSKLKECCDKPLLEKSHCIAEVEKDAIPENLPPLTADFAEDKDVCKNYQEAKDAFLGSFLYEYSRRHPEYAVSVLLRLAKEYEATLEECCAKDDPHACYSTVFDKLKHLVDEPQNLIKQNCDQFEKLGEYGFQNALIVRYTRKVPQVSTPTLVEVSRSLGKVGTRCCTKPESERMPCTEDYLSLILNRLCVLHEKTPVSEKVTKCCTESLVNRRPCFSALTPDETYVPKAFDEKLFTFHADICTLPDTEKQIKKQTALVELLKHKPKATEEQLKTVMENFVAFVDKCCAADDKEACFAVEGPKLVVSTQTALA
# Method: The binding of the new [^99mTc]Tc-DT10/11/12 and the [^99mTc]Tc-DT1 reference to albumin was compared via the incubation of radioligands in BSA-treated 6-well plates. Accordingly, HEPES-buffered saline (150 mM of NaCl, 20 mM of HEPES, pH 7.4) supplemented with 0.5% w/v BSA (1200 µL of HBS-BSA) was added to each well, followed by the radioligand (250 fmol peptide, in 150 µL of HBS) and either HBS-BSA (150 µL, total binding) or Ibuprofen (22.2 mg/mL in HBS, 150 µL), to reach a total final volume of 1.5 mL. The plates were incubated in triplicate at 37 °C for 30 min in the incubator. Next, the supernatants were discarded and the wells were treated with 1 M NaOH (2 × 600 µL). The lysates were combined and collected in RIA tubes for radioactivity measurement on the γ-counter. Binding to albumin was calculated as a percentage of the measured activity vs. the activity originally added per well. The experiments were performed at least three times in triplicate and the results represent the average binding to albumin ± sd.
Compound,IC50 (human NTS1R) [pM],specific internalization (AsPC-1 cells) [%],binding to albumin (albumin) [%]
"CC[C@H](C)[C@H](NC(=O)[C@H](Cc1ccc(O)cc1)NC(=O)[C@@H]1CCCN1C(=O)[C@H](CCCNC(=N)N)NC(=O)[C@H](CCCNC(=N)N)NC(=O)CNC(=O)C(CNCCN)CNCCN)C(=O)N[C@@H](CC(C)C)C(=O)O [DT1, N4-Gly-Arg-Arg-Pro-Tyr-Ile-Leu-OH] (X1-GRRPYIL-OH)",140 ± 10,–,–
CC[C@H](C)[C@H](NC(=O)[C@H](Cc1ccc(O)cc1)NC(=O)[C@@H]1CCCN1C(=O)[C@H](CCCNC(=N)N)NC(=O)[C@H](CCCNC(=N)N)NC(=O)[C@H](CCCCNC(=O)CCCc1ccc(C)cc1)NC(=O)C(CNCCN)CNCCN)C(=O)N[C@@H](CC(C)C)C(=O)O [DT10] (X1-K(Butanoyl(4-(4-MePh)))RRPYIL-OH),60 ± 30,–,–
"[^99mTc]Tc-DT1: Tc-99m labeled DT1 (N4-Gly-Arg-Arg-Pro-Tyr-Ile-Leu-OH), unmodified reference radioligand (N4-GRRPYIL-OH; also: 99mTc complexed by N4 chelator)",–,15.1 ± 2.3,< 1.0
